According to US10323022B2, “Pyrrolidinyl urea, pyrrolidinyl thiourea and pyrrolidinyl guanidine compounds as TrkA kinase inhibitors” (Array BioPharma Inc., priority 2011, dated 2019):
Structures can show the parent of a compound that is named as a salt.

molecular target: TrkA (Homo sapiens (Human), UniProt P04629); test: TrkA Omnia Assay; format: biochemical; details: averaged IC50; 20 nM enzyme, 500 μM ATP, 10 μM peptide substrate
Summary of the method: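 Continuous fluorescent kinase read-out (ex 360 nm, em 485 nm) over 70 min, with initial rates fitted to 4- or 5-parameter logistic curves for IC50. Final conditions: 500 μM ATP, 10 μM Omnia Tyr Peptide #4, 20 nM TrkA, MOPS pH 7.5 buffer with MgCl2 and Triton X-100; enzyme and compound preincubated 10 min at ambient temperature.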

Chain of TrkA (P04629 33-796): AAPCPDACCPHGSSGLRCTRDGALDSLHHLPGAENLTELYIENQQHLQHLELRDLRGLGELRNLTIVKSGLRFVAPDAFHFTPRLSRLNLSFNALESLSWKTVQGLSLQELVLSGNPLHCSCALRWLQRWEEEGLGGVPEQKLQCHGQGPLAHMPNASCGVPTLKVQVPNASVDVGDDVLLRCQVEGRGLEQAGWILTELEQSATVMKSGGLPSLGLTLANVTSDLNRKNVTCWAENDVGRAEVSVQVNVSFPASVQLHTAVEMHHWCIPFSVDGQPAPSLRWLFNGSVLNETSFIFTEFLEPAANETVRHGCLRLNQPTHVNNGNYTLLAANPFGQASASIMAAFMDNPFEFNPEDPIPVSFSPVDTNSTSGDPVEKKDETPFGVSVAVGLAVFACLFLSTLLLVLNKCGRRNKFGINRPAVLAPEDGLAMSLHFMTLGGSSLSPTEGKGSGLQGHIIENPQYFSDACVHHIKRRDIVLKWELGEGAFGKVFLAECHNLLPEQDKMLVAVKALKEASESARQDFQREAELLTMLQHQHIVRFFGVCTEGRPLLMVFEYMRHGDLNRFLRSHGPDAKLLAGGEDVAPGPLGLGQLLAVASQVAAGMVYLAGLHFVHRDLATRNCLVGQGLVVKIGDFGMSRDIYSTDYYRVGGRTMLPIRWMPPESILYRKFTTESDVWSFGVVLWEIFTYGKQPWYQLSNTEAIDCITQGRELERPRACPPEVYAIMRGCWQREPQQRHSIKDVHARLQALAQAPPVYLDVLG

IC50	SMILES
100 to 1000 nM	COc1ncccc1N1C[C@@H](NC(=O)Nc2c(Br)c(-c3ccccc3)nn2-c2ccccc2)[C@H](c2ccccc2)C1 [Example 247, 1-(4-bromo-1,3-diphenyl-1H-pyrazol-5-yl)-3-((3S,4R)-1-(2-methoxypyridin-3-yl)-4-phenylpyrrolidin-3-yl)urea]
< 100 nM	CCOc1nn(-c2ccccc2)c(NC(=O)N[C@@H]2CN(Cc3csnn3)C[C@H]2c2ccc(F)c(F)c2)c1C [Example 249, 1-((3S,4R)-1-((1,2,3-thiadiazol-4-yl)methyl)-4-(3,4-difluorophenyl)pyrrolidin-3-yl)-3-(3-ethoxy-4-methyl-1-phenyl-1H-pyrazol-5-yl)urea]
< 100 nM	CCOc1nn(-c2ccccc2)c(NC(=O)N[C@@H]2CN(C(C)COC)C[C@H]2c2ccc(F)c(F)c2)c1C (stereo partly drawn) [Example 255, 1-((3S,4R)-4-(3,4-difluorophenyl)-1-(1-methoxypropan-2-yl)pyrrolidin-3-yl)-3-(3-ethoxy-4-methyl-1-phenyl-1H-pyrazol-5-yl)urea]
< 100 nM	COCC(CO)N1C[C@@H](NC(=O)Nc2c3c(nn2-c2ccccc2)CCC3)[C@H](c2ccc(F)c(F)c2)C1 (stereo partly drawn) [Example 260, 1-((3S,4R)-4-(3,4-difluorophenyl)-1-(1-hydroxy-3-methoxypropan-2-yl)pyrrolidin-3-yl)-3-(2-phenyl-2,4,5,6-tetrahydrocyclopenta[c]pyrazol-3-yl)urea]
1000 to 10000 nM	COCC(C(=O)O)N1C[C@@H](NC(=O)Nc2c3c(nn2-c2ccccc2)CCC3)[C@H](c2ccc(F)c(F)c2)C1 (stereo partly drawn) [Example 262, 2-((3R,4S)-3-(3,4-difluorophenyl)-4-(3-(2-phenyl-2,4,5,6-tetrahydrocyclopenta[c]pyrazol-3-yl)ureido)pyrrolidin-1-yl)-3-methoxypropanoic acid hydrochloride]
< 100 nM	CCOc1nn(-c2ccccc2)c(NC(=O)N[C@@H]2CN(C(CO)COC)C[C@H]2c2ccc(F)c(F)c2)c1C (stereo partly drawn) [Example 263, 1-((3S,4R)-4-(3,4-difluorophenyl)-1-(1-hydroxy-3-methoxypropan-2-yl)pyrrolidin-3-yl)-3-(3-ethoxy-4-methyl-1-phenyl-1H-pyrazol-5-yl)urea]
< 100 nM	Cc1nn(-c2ccccc2)c(NC(=O)N[C@H]2CN(CC(F)(F)F)C[C@@H]2c2ccccc2)c1C [Example 265, 1-(3,4-dimethyl-1-phenyl-1H-pyrazol-5-yl)-3-((3R,4S)-4-phenyl-1-(2,2,2-trifluoroethyl)pyrrolidin-3-yl)urea]
< 100 nM	Cc1c(OCCF)nn(-c2ccccc2)c1NC(=O)N[C@H]1CN(CC(F)(F)F)C[C@@H]1c1ccccc1 [Example 266, 1-(3-(2-fluoroethoxy)-4-methyl-1-phenyl-1H-pyrazol-5-yl)-3-((3R,4S)-4-phenyl-1-(2,2,2-trifluoroethyl)pyrrolidin-3-yl)urea]
< 100 nM	Cc1c(OCC#N)nn(-c2ccccc2)c1NC(=O)N[C@H]1CN(CC(F)(F)F)C[C@@H]1c1ccccc1 [Example 268, 1-(3-(cyanomethoxy)-4-methyl-1-phenyl-1H-pyrazol-5-yl)-3-((3R,4S)-4-phenyl-1-(2,2,2-trifluoroethyl)pyrrolidin-3-yl)urea]
< 100 nM	Cc1c(-c2cnn(C)c2)nn(-c2ccccc2)c1NC(=O)N[C@H]1CN(CC(F)(F)F)C[C@@H]1c1ccccc1 [Example 269, 1-(1′,4-dimethyl-1-phenyl-1H,1′H-3,4′-bipyrazol-5-yl)-3-((3R,4S)-4-phenyl-1-(2,2,2-trifluoroethyl)pyrrolidin-3-yl)urea]
< 100 nM	Cc1c(OC[C@H]2COC(C)(C)O2)nn(-c2ccccc2)c1NC(=O)N[C@H]1CN(CC(F)(F)F)C[C@@H]1c1ccccc1 [Example 271, 1-(3-(((S)-2,2-dimethyl-1,3-dioxolan-4-yl)methoxy)-4-methyl-1-phenyl-1H-pyrazol-5-yl)-3-((3R,4S)-4-phenyl-1-(2,2,2-trifluoroethyl)pyrrolidin-3-yl)urea]

Second part, the compound before the results:

SMILES	IC50
O=C(Nc1c2c(nn1-c1ccccc1)CCC2)N[C@@H]1CN(Cc2csnn2)C[C@H]1c1ccc(F)c(F)c1 [Example 248, 1-((3S,4R)-1-((1,2,3-thiadiazol-4-yl)methyl)-4-(3,4-difluorophenyl)pyrrolidin-3-yl)-3-(2-phenyl-2,4,5,6-tetrahydrocyclopenta[c]pyrazol-3-yl)urea]	< 100 nM
Cc1c(OCC#N)nn(-c2ccccc2)c1NC(=O)N[C@@H]1CN(Cc2csnn2)C[C@H]1c1ccc(F)c(F)c1 [Example 250, 1-((3S,4R)-1-((1,2,3-thiadiazol-4-yl)methyl)-4-(3,4-difluorophenyl)pyrrolidin-3-yl)-3-(3-(cyanomethoxy)-4-methyl-1-phenyl-1H-pyrazol-5-yl)urea]	< 100 nM
Cc1c(-c2cnn(C)c2)nn(-c2ccccc2)c1NC(=O)N[C@@H]1CN(Cc2csnn2)C[C@H]1c1ccc(F)c(F)c1 [Example 251, 1-((3S,4R)-1-((1,2,3-thiadiazol-4-yl)methyl)-4-(3,4-difluorophenyl)pyrrolidin-3-yl)-3-(1′,4-dimethyl-1-phenyl-1H, 1′H-3,4′-bipyrazol-5-yl)urea]	< 100 nM
Cc1c(-c2cn(C)cn2)nn(-c2ccccc2)c1NC(=O)N[C@@H]1CN(Cc2csnn2)C[C@H]1c1ccc(F)c(F)c1 [Example 252, 1-((3S,4R)-1-((1,2,3-thiadiazol-4-yl)methyl)-4-(3,4-difluorophenyl)pyrrolidin-3-yl)-3-(4-methyl-3-(1-methyl-1H-imidazol-4-yl)-1-phenyl-1H-pyrazol-5-yl)urea]	< 100 nM
Cn1cc(CN2C[C@@H](NC(=O)Nc3c4c(nn3-c3ccccc3)CCC4)[C@H](c3ccc(F)c(F)c3)C2)nn1 [Example 253, 1-((3S,4R)-4-(3,4-difluorophenyl)-1-((1-methyl-1H-1,2,3-triazol-4-yl)methyl)pyrrolidin-3-yl)-3-(2-phenyl-2,4,5,6-tetrahydrocyclopenta[c]pyrazol-3-yl)urea]	100 to 1000 nM
CCOc1nn(-c2ccccc2)c(NC(=O)N[C@@H]2CN(C(COC)COC)C[C@H]2c2ccc(F)c(F)c2)c1C [Example 254, 1-((3S,4R)-4-(3,4-difluorophenyl)-1-(1,3-dimethoxypropan-2-yl)pyrrolidin-3-yl)-3-(3-ethoxy-4-methyl-1-phenyl-1H-pyrazol-5-yl)urea]	< 100 nM
COCC(C(=O)OC)N1C[C@@H](NC(=O)Nc2c3c(nn2-c2ccccc2)CCC3)[C@H](c2ccc(F)c(F)c2)C1 (stereo partly drawn) [Example 259, methyl2-((3R,4S)-3-(3,4-difluorophenyl)-4-(3-(2-phenyl-2,4,5,6-tetrahydrocyclopenta[c]pyrazol-3-yl)ureido)pyrrolidin-1-yl)-3-methoxypropanoate]	< 100 nM
COCC(N1C[C@@H](NC(=O)Nc2c3c(nn2-c2ccccc2)CCC3)[C@H](c2ccc(F)c(F)c2)C1)C(C)(C)O (stereo partly drawn) [Example 261, 1-((3S,4R)-4-(3,4-difluorophenyl)-1-(3-hydroxy-1-methoxy-3-methylbutan-2-yl)pyrrolidin-3-yl)-3-(2-phenyl-2,4,5,6-tetrahydrocyclopenta[c]pyrazol-3-yl)urea]	100 to 1000 nM
COCC(CO)N1C[C@@H](NC(=O)Nc2c(Cl)c(-c3cnn(C)c3)nn2-c2ccccc2)[C@H](c2ccc(F)c(F)c2)C1 (stereo partly drawn) [Example 264]	< 100 nM
CCOc1nn(-c2ccccc2)c(NC(=O)N[C@H]2CN(CC(F)(F)F)C[C@@H]2c2ccccc2)c1C [Example 267, 1-(3-ethoxy-4-methyl-1-phenyl-1H-pyrazol-5-yl)-3-((3R,4S)-4-phenyl-1-(2,2,2-trifluoroethyl)pyrrolidin-3-yl)urea]	< 100 nM
